The values below come from patent publication US11572548B2, “Reaction mixture for synthesis of alpha1-2-fucosides” (The Regents of the University of California, priority 2015, dated 2023).

The target of data set [1] is T1, His6-Te2FT (Thermosynechococcus vestitus, UniProt Q8DK72). In words: Effects of metal ions, DTT and EDTA on α1-2-fucosyltransferase activity. It counts as biochemical, Thermosynechococcus elongatus BP-1. Particulars: pH 7.5; for effect on α1-2-fucosyltransferase activity: 10 mM added; for effect on α1-2-fucosyltransferase activity / enhancement of α1-2-fucosyltransferase activity: acceptor Galβ1-3GlcNAcβ2AA; for enhancement of α1-2-fucosyltransferase activity: 5-20 mM added. The method, then: For metal effects, various concentrations (5 mM, 10 mM, or 20 mM) of MgCl2 or MnCl2 were added and EDTA (as a chelating agent) (10 mM) and DTT (10 mM) were used in a Tris-HCl buffer (pH 7.5, 200 mM) to analyze their effects on the α1-2-fucosyltransferase activity of His6-Te2FT for acceptor Galβ1-3GlcNAcβ2AA. Reaction without metal ions, EDTA and DTT was used as a control. The effects of metal ions Mg^2+ and Mn^2+ as well as DTT and the chelating agent EDTA on the α1-2-fucosyltransferase activity of His6-Te2FT toward and acceptor Galβ1-3GlcNAcβ2AA were examined at pH 7.5.

Data set [2] concerns the target T1, His6-Te2FT. In words: Kinetics of GDP-fucose hydrolysis by capillary electrophoresis assays. The format is biochemical, Thermosynechococcus elongatus BP-1. The method, then:
The enzymatic assays were carried out in duplicate in a total volume of 10 μL in Tris-HCl buffer (200 mM, pH 9.0) containing MgCl2 (20 mM), GDP-fucose and the recombinant protein (4.5 μg). Reactions were allowed to proceed for 30 min at 37° C. Apparent kinetic parameters were obtained by varying the final GDP-fucose concentration from 0.4 to 2.0 mM (0.4, 0.5, 0.6, 0.8, 1.0 and 2.0 mM). Apparent kinetic parameters were obtained by fitting the data (the average values of duplicate assay results) into the Michaelis-Menten equation using Grafit 5.0.

Data set [3] has as its target T1, His6-Te2FT. In words: Kinetics of α1-2-fucosyltransferase activity by HPLC assays. The format is biochemical, Thermosynechococcus elongatus BP-1. Particulars: for Km / kcat: 2FT activity, apparent, pH 6.0, 37° C., MgCl2 20 mM, other substrate fixed at 1 mM. The method, then: Typical enzymatic assays were carried out in duplicate in a total volume of 10 μL in Tris-HCl buffer (pH 6.0, 200 mM) containing MgCl2 (20 mM), GDP-fucose, Galβ1-3GlcNAcβ2AA, and the recombinant His6-Te2FT (0.75 μg). All reactions were allowed to proceed for 10 min at 37° C. Apparent kinetic parameters were obtained by varying the GDP-fucose concentration from 0.1 to 10.0 mM (0.1, 0.2, 0.4, 1.0, 5.0, and 10.0 mM) and a fixed concentration of Galβ1-3GlcNAcβ2AA (1 mM); or a fixed concentration of GDP-fucose (1 mM) and varied concentrations of Galβ1-3GlcNAcβ2AA from 0.1 to 10.0 mM (0.1, 0.2, 0.4, 5.0, and 10.0 mM). The reaction mixture was quenched by boiling for 2 minutes and diluted 60-fold for detection. Apparent kinetic parameters were obtained by fitting the data into the Michaelis-Menten equation using Grafit 5.0.

In data set [4] the target is T1, His6-Te2FT. The data set is described as follows: Acceptor substrate specificity studies of His6-Te2FT. It counts as biochemical, Thermosynechococcus elongatus BP-1.
Data set [5] is described as follows: Effect of temperature on α1-2-fucosyltransferase activity of His6-Te2FT. The format is biochemical. Here is the method: Assays were carried out in a total volume of 10 μL in a Tris-HCl buffer (pH 6.0, 200 mM) at temperatures ranging from 15° C. to 70° C. The reaction mixture contained GDP-fucose (1 mM), MgCl2 (20 mM), Galβ1-3GlcNAcβ2AA (1 mM), and the recombinant His6-Te2FT (1.5 μg). All reactions were allowed to proceed for 10 minutes at various temperatures. The reaction was stopped by boiling for 2 minutes, and diluted 60-fold for detection.

Data set [6] is described as follows: pH profile of GDP-fucose hydrolysis of His6-Te2FT by capillary electrophoresis. It counts as biochemical. Here is the method:
Each reaction was carried out in duplicate at 37° C. for 30 minutes in a total volume of 10 μL in a buffer (200 mM) with pH varying from 3.0 to 11.0. The buffers used were: Citric, pH 3.0-4.0, NaOAc/HOAc, pH 4.5, MES, pH 5.0-6.5; Tris-HCl, pH 7.0-9.0; and CAPS, pH 10.0-11.0 containing GDP-fucose (1 mM), MgCl2 (20 mM) and the recombinant enzyme (3.75 μg). Reactions were stopped by boiling for 2 min followed by adding an equal volume of water (10 μL) to make a two-fold dilution. The samples were kept on ice until aliquots of 6 μL were withdrawn and analyzed by a Beckman P/ACE MDQ capillary electrophoresis system (60 cm×75 μm i.d.) with a PDA detector. The ratio of the absorbance for GDP-fucose and GDP at 254 nm was determined at different concentrations (2.5, 5, and 10 mM). All assays were carried out in duplicate.

Data set [7] is described as follows: Effect of freeze-dry cycle (lyophilization and rehydration) on His6-Te2FT activity. The format is biochemical. Particulars: lyophilized, rehydrated. The method, then: Purified His6-Te2FT samples were prepared essentially as described in Example 1, and were dialyzed against 20 mM Tris-HCl without glycerol and lyophilized. The Te2FT powders were stored at −70° C. for 20 days, or for several months. After that, the dried powder was dissolved in water and 20 mM Tris-HCl buffer, respectively. The activities of the lyophilized His6-Te2FT samples were compared with the same amount and concentration of freshly prepared Te2FT samples. The reaction mixture was GDP-fucose (1 mM), Galβ1-3GlcNAcβ2AA, (1 mM), MgCl2 (20 mM), and His6-Te2FT (0.75 μg). All reactions were performed in duplicate and allowed to proceed for 10 minutes at 37° C.

Data set [8] can be described thus: pH profile of α1-2-fucosyltransferase activity of His6-Te2FT by HPLC. It counts as biochemical. The method, then: Each reaction was carried out in duplicate at 37° C. for 10 minutes in a total volume of 10 μL in a buffer (200 mM) with pH varying from 3.0 to 11.0. The buffers used were: Citric, pH 3.0-4.0, NaOAc/HOAc, pH 4.5, MES, pH 5.0-6.5; Tris-HCl, pH 7.0-9.0; and CAPS, pH 10.0-11.0. The reaction system was: GDP-fucose (1 mM), fluorophore 2-anthranilic acid (2AA)-labeled oligosaccharide (Galβ1-3GlcNAcβ2AA, 1 mM), MgCl2 (20 mM), and the recombinant enzyme, His6-Te2FT (0.25 μg). The reaction mixture was stopped by boiling for 2 min and then adding an equal volume of water (10 μL) to make a […] dilution for Galβ1-3GlcNAcβ2AA. The samples were analyzed by a Shimadzu LC-2010A system equipped with a membrane online degasser, a temperature control unit and a fluorescence detector. A reverse-phase Premier C18 column (250×4.6 mm i.d., 5 μm particle size, Shimadzu) protected with a C18 guard column cartridge was used. The mobile phase was 20% acetonitrile. The ratio of the absorbance for fluorescent-labeled product at 315-400 nm was determined.

Setting [9] is: GDP-Fuc hydrolysis, apparent, pH 9.0, 37° C., MgCl2 20 mM.
[10] abbreviates: acceptor Galβ1-3GlcNAcβ2AA, 37° C., 10 minutes.

As for `O[C@H](CS)[C@H](O)CS` (racemic) [DTT, dithiothreitol], the “effect on α1-2-fucosyltransferase activity” value at His6-Te2FT [1] is recorded as “decreased His6-Te2FT activity moderately”.
Same read-out and setting: with `O=C(O)CN(CCN(CC(=O)O)CC(=O)O)CC(=O)O` [EDTA, ethylenediaminetetraacetic acid] the entry was “decreased its activity only slightly”.
Consider `C[C@@H]1O[C@H](OP(=O)(O)OP(=O)(O)OC[C@H]2O[C@@H](n3cnc4c(=O)[nH]c(N)nc43)[C@H](O)[C@@H]2O)[C@@H](O)[C@H](O)[C@@H]1O` [GDP-fucose, Guanosine 5′-diphosphate-fucose], for which, at His6-Te2FT [2] (setting [9]), the Km stood at 560 ± 210 µM and the kcat was found to be 0.005 ± 0.001 s⁻¹. For the same molecule, the “GDP-fucose (donor) hydrolysis activity weaker than α1-2-fucosyltransferase activity” value on His6-Te2FT [2] (His6-Te2FT, ratio of kcat/KM) is listed as 47 fold. On His6-Te2FT [3], the Km was 730 ± 680 µM and the kcat came to 0.438 ± 0.013 s⁻¹. Further, the “kcat value for GDP-fucose, higher compared to GST-WbsJ” value at His6-Te2FT [3] (His6-Te2FT versus GST-WbsJ, acceptor Galβ1-3GlcNAcβ2AA) is recorded as 201 fold. Moreover, on His6-Te2FT [3] (His6-Te2FT versus His6Prop-WgbL, acceptor Galβ1-3GlcNAcβ2AA), the “kcat value for GDP-fucose, higher compared to His6Prop-WgbL” value is 6.7 fold. On His6-Te2FT [3] (His6-Te2FT versus Hp2FT, acceptor Galβ1-3GlcNAcβ2AA), the “kcat value for GDP-fucose, higher compared to Hp2FT” value came out at 14.6 fold. In addition, the “kcat/KM value for GDP-Fuc, higher than WbgL” value at His6-Te2FT [3] (His6-Te2FT versus WbgL) worked out at 2.5 fold. In addition, the “kcat/KM value for GDP-Fuc, higher than WbsJ” value at His6-Te2FT [3] (His6-Te2FT versus WbsJ) is 29.2 fold.
Turning to `[Cl-].[Cl-].[Mg+2]` [Mg^2+, MgCl2], the “enhancement of α1-2-fucosyltransferase activity” value at His6-Te2FT [1] was “about two-fold”.
On the same count and under the same terms, with `[Cl][Mn][Cl]` [Mn^2+, MnCl2] the entry was “about two-fold”.
In the case of Gal1-3GlcNAcαOR, the “suitability as acceptor substrate for adding α1-2-linked fucose” value (shortened to “suitability as acceptor substrate”) at His6-Te2FT [4] was “worked well”.
Same read-out and setting: with Gal β1-3GlcNAcβ1-3Galβ1-4Glc [LNT] the entry was “excellent acceptor”; with Galβ1-3GalNAcαOR, “worked well”.
Consider Galβ1-3GalNAcβOR, for which the “suitability as acceptor substrate” value at His6-Te2FT [4] is “worked well”.
As to Galβ1-3GlcNAcβ2AA, at His6-Te2FT [3], the Km is 790 ± 110 µM and the kcat was 0.333 ± 0.012 s⁻¹. Further, the “affinity for the acceptor compared to GST-WbsJ, His6Prop-WgbL and Hp2FT” value at His6-Te2FT [3] (His6-Te2FT versus other 2FTs) was “higher affinity”.
Regarding Galβ1-3GlcNAcβOR, the “suitability as acceptor substrate” value on His6-Te2FT [4] is “worked well”.
Galβ1-4GlcNAcβOR: the “suitability as acceptor substrate” value at His6-Te2FT [4] is recorded as “not good acceptors”.
The same measure, in the same setting: the entry for Galβ1-4GlcβOR is “not good acceptors”.

B1: His6-Te2FT: N-His6-tagged recombinant α1-2-fucosyltransferase from Thermosynechococcus elongatus BP-1 (SEQ ID NO:1) (protein, listed as Thermosynechococcus elongatus)
chain: MIIVHLCGGLGNQMFQYAAGLAAAHRIGSEVKFDTHWFDATCLHQGLELRRVFGLELPEPSSKDLRKVLGACVHPAVRRLLAGHFLHGLRPKSLVIQPHFHYWTGFEHLPDNVYLEGYWQSERYFSNIADIIRQQFRFVEPLDPHNAALMDEMQSGVSVSLHIRRGDYFNNPQMRRVHGVDLSEYYPAAVATMIEKTNAERFYVFSDDPQWVLEHLKLPVSYTVVDHNRGAASYRDMQLMSACRHHIIANSTFSWWGAWLNPRPDKVVIAPRHWFNVDVFDTRDLYCPGWIVL
modifications: N-terminal His6 tag
Regarding B1, the “activity at low temperature” value in data set [5] (15° C. and 20° C.) was “Low activity”. Further, the “activity at high temperature” value in data set [5] (65° C. or 70° C.) was “minimal activity”. Besides, in data set [5] (pH 6.0, 10 minutes), the “temperature range in which active” value is 25-60 °C and the “temperature range of optimal activities” value is 30-45 °C. For the same molecule, the “optimal pH for the GDP-fucose hydrolysis activity” value in data set [6] (37° C., 30 minutes) is on record as 9.5. In addition, in data set [6] (pH range 5.0-8.0, 15-fold more enzyme and 3-fold longer reaction time), the donor hydrolysis activity result is given as “at a minimum”. Also, the “requirement of a divalent metal ion for α1-2-fucosyltransferase activity” value in the data set with His6-Te2FT [1] is given as “not required”. Moreover, the “stability to freeze-dry treatment” value in data set [7] is recorded as “can survive a freeze-dry treatment”. In data set [8] (setting [10]), the “pH of optimal activities” value is 4.5-6.0 and the “pH range in which active” value was 4.0-10.0. The “activity as % of the optimal activity” value in data set [8] (pH 6.5) is “About 85%”.
